Source: paper PMC3722118, “Hellebrin and its aglycone form hellebrigenin display similar in vitro growth inhibitory effects in cancer cells and binding profiles to the alpha subunits of the Na^+/K^+-ATPase” (Molecular Cancer, 2013)
Like-named read-outs stand apart in the source and are kept apart here.

Legend:
SKMEL-28 melanoma cells = test: MTT colorimetric in vitro growth inhibition assay; type: cell-based, human; conditions: read-out: IC50 (nM) SKMEL-28
From the text: (§1) The histological types and origins of the eight human cancer cell lines that were used for the MTT colorimetric assay are detailed in the legend of Table 1. Two mouse cancer cell lines were also used, the CT26.WT colon cancer cell line (ATCC code CRL-2638) and the B16F10 melanoma cell line (ATCC code CRL-6475). Both cell lines were obtained from the American Type Culture Collection (ATCC, Manassas, VA). A control cell line (human NHDF fibroblasts) was obtained from PromoCell (code c-12300; Heidelberg, Germany). The cell lines detailed in Figure 2A are a generous gift from the National Cancer Institute (NCI, Bethesda, USA) to Steven Karlish’s lab.
(§2) The cancer cells were cultured in RPMI (Lonza, Verviers, Belgium) medium supplemented with 10% heat-inactivated fetal calf serum (Lonza). All culture media were supplemented with 4 mM glutamine, 100 μg/mL gentamicin, 200 U/mL penicillin and 200 μg/mL streptomycin (Lonza). The NHDF fibroblasts were cultured in Lonza medium cc3132 KT FGM-2 BulletKit.
(§3) The overall growth level of the human cancer cell lines was determined using a colorimetric MTT (3-(4,5-dimethylthiazol-2yl)-2,5-diphenyltetrazolium bromide, Sigma, Belgium) assay as detailed previously. Briefly, this test measures the number of metabolically active (thus living) cells that are able to transform the yellow MTT into the blue formazan dye via a mitochondrial reduction involving succinate dehydrogenase. The amount of formazan obtained at the end of the experiment (measured by spectrophotometry) is directly proportional to the number of living cells. The determination of the optical density in the control compared to the treated cells therefore enables quantitative measurements of the effects of compounds on the growth of normal as well as cancer cells in vitro.
(§4) Each experimental condition was performed in six replicates.

Hs683 glioma cells = test: MTT colorimetric in vitro growth inhibition assay; type: cell-based, human; conditions: read-out: IC50 (nM) Hs683
From the text: as §1, §2, §3, §4

HT-29 colon cancer cells [1] = test: MTT colorimetric in vitro growth inhibition assay; type: cell-based, human; conditions: read-out: IC50 (nM) HT-29
From the text: as §1, §2, §3, §4

A549 NSCLC cells = test: MTT colorimetric in vitro growth inhibition assay; type: cell-based, human; conditions: read-out: IC50 (nM) A549
From the text: as §1, §2, §3, §4

[2] = tested on: PC-3 prostate cancer cells; test: MTT colorimetric in vitro growth inhibition assay; type: cell-based, human; conditions: read-out: IC50 (nM) PC-3
From the text: as §1, §2, §3, §4

U373 glioma cells = test: MTT colorimetric in vitro growth inhibition assay; type: cell-based, human; conditions: read-out: IC50 (nM) U373
From the text: as §1, §2, §3, §4

[3] = tested on: MCF-7 breast cancer cells; test: MTT colorimetric in vitro growth inhibition assay; type: cell-based, human; conditions: read-out: IC50 (nM) MCF-7
From the text: as §1, §2, §3, §4

T98G glioma cells = test: MTT colorimetric in vitro growth inhibition assay; type: cell-based, human; conditions: read-out: IC50 (nM) T98G
From the text: as §1, §2, §3, §4

[4] = tested on: human cancer cells (A549, U373, Hs683, T98G, MCF-7, SKMEL-28, PC-3, HT-29); test: MTT growth inhibition, mean over the eight human cancer cell lines; type: cell-based; conditions: read-out: IC50 (nM) Mean ± SEM
From the text: as §1, §2, §3, §4

NHDF fibroblasts = test: MTT growth inhibition in non-cancerous control cell line; type: cell-based; conditions: NHDF, normal human fibroblasts, read-out: in vitro growth inhibitory effects (IC50) in NHDF fibroblasts
From the text: as §1, §2, §3, §4

human α1β1 NaK complex = target: T1, human α1β1 NaK complex (Homo sapiens, UniProt P05023); test: 3H-ouabain competitive displacement on P. pastoris membranes; type: binding; conditions: 3H-ouabain displacement, three independent experiments; read-out: Affinity (nM) α-1 (KD ± SEM)
T1 construct: made in house; host or cells: Pichia pastoris strain SMD1165 (membranes)
Protocol: (§5) K0.5 was calculated using a one site inhibition model: B/BCG=0 = K0.5/([CG] + K0.5). […] Binding of each cardiac glycoside was estimated in 3 separate experiments.
(§6) Average KD or Ki values ± SEM for each isoform were calculated. Statistical significance was calculated by the unpaired Students t-test. P values <0.05 were considered significant.

human α2β1 NaK complex = target: T2, human α2β1 NaK complex (Homo sapiens, UniProt P50993); test: as above; type: binding
T2 construct: made in house; host or cells: Pichia pastoris strain SMD1165 (membranes)
Protocol: as §5, §6

human α3β1 NaK complex = target: T3, human α3β1 NaK complex (Homo sapiens, UniProt P13637); test: as above; type: binding
T3 construct: made in house; host or cells: Pichia pastoris strain SMD1165 (membranes)
Protocol: as §5, §6

[5] = target: T4, purified human α1β1 Na+/K+-ATPase (Homo sapiens, UniProt P05023); test: Inhibition of NaK activity of purified detergent-soluble complex (Pi release); type: biochemical; conditions: 37°C, 1 h, 1 mM ATP; read-out: Ki for inhibition of NaK activity of purified human α1β1
T4 construct: made in house; host or cells: Pichia pastoris strain SMD1165; detergent-soluble complex purified
Protocol: The inhibition of NaK activity of the purified detergent-soluble α1β1, α2β1, and α3β1 complexes by cardiotonic steroids and an analysis of the inhibition data (Ki values) were also performed as previously described. The inhibitors were added to the recombinant enzyme (0.08–0.2 μg of protein) in 400 μl of reaction medium containing 130 mM NaCl, 5 mM KCl, 3 mM MgCl2, 25 mM histidine, pH 7.4, 1 mM EGTA, 0.01 mg/ml SOPS, 0.001 mg/ml cholesterol, and 0.005 mg/ml C12 E8 in 48-well plates. The reaction (37°C for 1 h) was started by the addition of 1mM ATP. Pi release was measured with a malachite green dye to detect the phosphor-molybdate (Pi Color Lock, Innova Biosciences). The percent inhibition V /V0 was calculated for each cardiac glycoside concentration, and Ki values were obtained by fitting the data to the function V /V0 = Ki /([CG] + Ki ) (using Kaleidagraph). V0 and V represent the control rate and rate of NaK-ATPase activity at particular concentrations of cardiac glycosides, [CG], respectively.
as §6

HT-29 colon cancer cells [6] = test: O2 consumption rate (MitoXpress assay); type: cell-based, human; conditions: compounds at their IC50 (MTT), 24 h
Protocol: For enzymatic determination of lactate production, confluent tumor cells were incubated with 10 mM glucose for 24 hours. Culture medium was then filtered through centrifugation columns with a 10 KDa cutoff, and L-lactate concentrations were determined on an ISCUSflex analyzer (CMA Microdialysis AB, Solna, Sweden). O2 consumption was determined using the MitoXpress assay according to the manufacturer’s instructions (LuxCell Biosciences, Cork, Ireland). Briefly, after adding the oxygen probe to tumor cells cultured for 24 hours in 96-well microplates with or without the tested compounds, the wells were sealed with mineral oil, and respiration was evaluated using time-resolved fluorescent plate readers. Under these conditions, O2 depletion was translated into an increase in probe phosphorescence signal, and the slope of this signal was used to derive the O2 consumption rate.
Figure 6 Metabolic profiling of human HT29 colon cancer cells treated with cardiotonic steroids. A: Extracellular lactate concentrations and B: O2 consumption rates in HT29 cancer cells treated with the indicated compounds at their IC50in vitro growth inhibitory concentrations (see Table 1). The data (mean ± SEM from triplicates) are expressed in mM lactate accumulated in the extracellular medium after 24 hours and arbitrary units derived from time-resolved fluorescent signal.min^-1.

[7] = Homo sapiens, SK-MEL-28, 72 h, three days of culture, * three independent experiments, ** one experiment, six replicates
[8] = Homo sapiens, Hs 683, 72 h, three days of culture, * three independent experiments, ** one experiment, six replicates
[9] = Homo sapiens, HT-29, 72 h, three days of culture, * three independent experiments, ** one experiment, six replicates
[10] = Homo sapiens, A549, 72 h, three days of culture, * three independent experiments, ** one experiment, six replicates
[11] = Homo sapiens, 72 h, three days of culture, * three independent experiments, ** one experiment, six replicates
[12] = Homo sapiens, U373 MG, 72 h, three days of culture, * three independent experiments, ** one experiment, six replicates
[13] = Homo sapiens, MCF7, 72 h, three days of culture, * three independent experiments, ** one experiment, six replicates
[14] = Homo sapiens, T98G, 72 h, three days of culture, * three independent experiments, ** one experiment, six replicates
[15] = 72 h, mean over eight human cancer cell lines, three days of culture
[16] = three days of culture, * three independent experiments, ** one experiment, six replicates

Structure (SMILES)	IC50 (SKMEL-28 melanoma cells; [7]) [nM]	IC50 (Hs683 glioma cells; [8]) [nM]	IC50 (HT-29 colon cancer cells [1]; [9]) [nM]	IC50 (A549 NSCLC cells; [10]) [nM]	IC50 [2, 11] [nM]	IC50 (U373 glioma cells; [12]) [nM]	IC50 [3, 13] [nM]	IC50 (T98G glioma cells; [14]) [nM]	IC50 [4, 15] [nM]	IC50 (SKMEL-28 melanoma cells; Homo sapiens, SK-MEL-28, 72 h) [nM]	IC50 (Hs683 glioma cells; Homo sapiens, Hs 683, 72 h) [nM]	IC50 (HT-29 colon cancer cells [1]; Homo sapiens, HT-29, 72 h) [nM]	IC50 (A549 NSCLC cells; Homo sapiens, A549, 72 h) [nM]	IC50 ([2]; Homo sapiens, 72 h) [nM]	IC50 (U373 glioma cells; Homo sapiens, U373 MG, 72 h) [nM]	IC50 ([3]; Homo sapiens, MCF7, 72 h) [nM]	IC50 (T98G glioma cells; Homo sapiens, T98G, 72 h) [nM]	IC50 ([4]; Homo sapiens, 72 h) [nM]	other results
C[C@]12CC[C@H](O)C[C@H]1CC[C@@H]1[C@@H]2C[C@@H](O)[C@]2(C)[C@@H](C3=CC(=O)OC3)CC[C@]12O [Digoxigenin, digoxigenin]	4000	794 ± 22	4460	395 ± 34	3880	3190	5320	1170	2900	–	–	–	–	–	–	–	–	–	–
C[C@]12CC[C@H](O)C[C@H]1CC[C@@H]1[C@@H]2[C@H](O)C[C@]2(C)[C@@H](c3ccc(=O)oc3)CC[C@]12O [Gamabufotalin, gamabufotalin]	–	–	–	–	–	–	–	–	–	22 ± 1	14 ± 3	37 ± 3	7 ± 1	22 ± 4	34 ± 1	40 ± 7	31 ± 8	26 ± 4	IC50 (NHDF fibroblasts): > 10000 nM; Kd (human α1β1 NaK complex): 243 ± 48 nM; Kd (human α2β1 NaK complex; 3H-ouabain displacement, three independent experiments, read-out: Affinity (nM) α-2 (KD ± SEM)): 247 ± 30 nM; Selectivity α-1 / α-2 (human α2β1 NaK complex; ratio of KD α-1 to KD α-2): 1.0; Kd (human α3β1 NaK complex; 3H-ouabain displacement, three independent experiments, read-out: Affinity (nM) α-3 (KD ± SEM)): 236 ± 14 nM; Selectivity α-1 / α-3 (human α3β1 NaK complex; ratio of KD α-1 to KD α-3): 1.0
C[C@]12CC[C@H](O)C[C@H]1CC[C@@H]1[C@@H]2CC[C@]2(C)[C@@H](C3=CC(=O)OC3)CC[C@]12O [Digitoxigenin]	–	–	–	–	–	–	–	–	–	2500	79	230	92	298	369	2130	166	733 ± 349	–
C[C@H]1O[C@@H](O[C@H]2[C@@H](O)C[C@H](O[C@H]3[C@@H](O)C[C@H](O[C@H]4CC[C@@]5(C)[C@H](CC[C@@H]6[C@@H]5CC[C@]5(C)[C@@H](C7=CC(=O)OC7)CC[C@]65O)C4)O[C@@H]3C)O[C@@H]2C)C[C@H](O)[C@@H]1O [Digitoxin, digitoxin]	59	15	198	11	37	61	187	32	75 ± 26	–	–	–	–	–	–	–	–	–	–
C[C@]12C[C@@H](O)[C@H]3[C@@H](CC[C@]4(O)C[C@@H](O)C[C@@H](O)[C@]34CO)[C@@]1(O)CC[C@@H]2C1=CC(=O)OC1 [Ouabagenin, ouabagenin]	–	–	–	–	–	–	–	–	–	–	–	–	–	–	–	–	–	–	IC50 (SKMEL-28 melanoma cells; [16]): 2560 nM; IC50 (Hs683 glioma cells; [16]): 1900 nM; IC50 (HT-29 colon cancer cells [1]; [16]): 3480 nM; IC50 (A549 NSCLC cells; [16]): 866 ± 25 nM; IC50 [2, 16]: 2710 nM; IC50 (U373 glioma cells; [16]): 5280 nM; IC50 [3, 16]: 4010 nM; IC50 (T98G glioma cells; [16]): 3600 nM; Ki [5]: 721 ± 70 nM; IC50 ([4]; mean over eight human cancer cell lines, three days of culture): 3050 nM
C[C@H]1O[C@@H](O[C@H]2[C@@H](O)C[C@H](O[C@H]3[C@@H](O)C[C@H](O[C@H]4CC[C@@]5(C)[C@H](CC[C@@H]6[C@@H]5C[C@@H](O)[C@]5(C)[C@@H](C7=CC(=O)OC7)CC[C@]65O)C4)O[C@@H]3C)O[C@@H]2C)C[C@H](O)[C@@H]1O [Digoxin, digoxin]	220 ± 26	51 ± 6	208 ± 20	60 ± 7	215 ± 71	227 ± 42	363 ± 35	274 ± 17	202 ± 37	–	–	–	–	–	–	–	–	–	O2 consumption rate (cell respiration) (HT-29 colon cancer cells [6]): significantly reduced
